Assay [1] deals with T1, Ephrin type-B receptor 2 (Homo sapiens) (UniProt P29323).
T1 sequence (whole entry): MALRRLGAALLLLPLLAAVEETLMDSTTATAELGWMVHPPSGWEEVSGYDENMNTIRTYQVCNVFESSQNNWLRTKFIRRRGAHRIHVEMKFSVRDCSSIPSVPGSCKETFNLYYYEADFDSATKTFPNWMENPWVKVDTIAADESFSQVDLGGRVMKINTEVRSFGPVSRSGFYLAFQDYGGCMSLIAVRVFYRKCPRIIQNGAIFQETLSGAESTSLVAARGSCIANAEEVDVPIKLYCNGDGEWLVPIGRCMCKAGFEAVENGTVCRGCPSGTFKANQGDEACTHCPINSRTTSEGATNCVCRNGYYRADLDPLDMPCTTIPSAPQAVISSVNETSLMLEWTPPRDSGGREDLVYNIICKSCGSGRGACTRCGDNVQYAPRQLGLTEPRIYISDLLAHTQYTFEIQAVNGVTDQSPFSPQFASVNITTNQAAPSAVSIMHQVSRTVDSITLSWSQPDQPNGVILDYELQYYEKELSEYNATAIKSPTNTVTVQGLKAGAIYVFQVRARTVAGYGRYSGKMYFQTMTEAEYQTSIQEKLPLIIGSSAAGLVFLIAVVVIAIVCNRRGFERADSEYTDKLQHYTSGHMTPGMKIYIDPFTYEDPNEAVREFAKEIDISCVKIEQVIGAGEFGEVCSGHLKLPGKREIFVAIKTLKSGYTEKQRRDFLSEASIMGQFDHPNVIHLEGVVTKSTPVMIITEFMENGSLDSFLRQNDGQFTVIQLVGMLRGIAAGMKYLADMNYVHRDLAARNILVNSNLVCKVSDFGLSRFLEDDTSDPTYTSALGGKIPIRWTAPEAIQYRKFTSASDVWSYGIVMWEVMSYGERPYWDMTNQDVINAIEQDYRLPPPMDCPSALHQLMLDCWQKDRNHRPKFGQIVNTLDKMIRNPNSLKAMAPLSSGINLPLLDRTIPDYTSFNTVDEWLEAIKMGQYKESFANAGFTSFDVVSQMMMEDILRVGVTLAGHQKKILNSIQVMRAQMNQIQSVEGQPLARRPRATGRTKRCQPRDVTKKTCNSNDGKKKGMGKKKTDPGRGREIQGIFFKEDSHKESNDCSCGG
Description: Selectivity interaction (KinomeScan (DiscoverX)) EUB0000607a EPHB2. Conditions: at 10 µM.

In assay [2] the target is Serine/threonine-protein kinase MRCK alpha (Homo sapiens) (UniProt Q5VT25). The assay is described as follows: Selectivity interaction (KinomeScan (DiscoverX)) EUB0000655a CDC42BPA. The note with it: at 10 µM.
Assay [3] concerns the target T2, Serine/threonine-protein kinase TAO1 (Homo sapiens) (UniProt Q7L7X3).
T2 sequence (whole entry): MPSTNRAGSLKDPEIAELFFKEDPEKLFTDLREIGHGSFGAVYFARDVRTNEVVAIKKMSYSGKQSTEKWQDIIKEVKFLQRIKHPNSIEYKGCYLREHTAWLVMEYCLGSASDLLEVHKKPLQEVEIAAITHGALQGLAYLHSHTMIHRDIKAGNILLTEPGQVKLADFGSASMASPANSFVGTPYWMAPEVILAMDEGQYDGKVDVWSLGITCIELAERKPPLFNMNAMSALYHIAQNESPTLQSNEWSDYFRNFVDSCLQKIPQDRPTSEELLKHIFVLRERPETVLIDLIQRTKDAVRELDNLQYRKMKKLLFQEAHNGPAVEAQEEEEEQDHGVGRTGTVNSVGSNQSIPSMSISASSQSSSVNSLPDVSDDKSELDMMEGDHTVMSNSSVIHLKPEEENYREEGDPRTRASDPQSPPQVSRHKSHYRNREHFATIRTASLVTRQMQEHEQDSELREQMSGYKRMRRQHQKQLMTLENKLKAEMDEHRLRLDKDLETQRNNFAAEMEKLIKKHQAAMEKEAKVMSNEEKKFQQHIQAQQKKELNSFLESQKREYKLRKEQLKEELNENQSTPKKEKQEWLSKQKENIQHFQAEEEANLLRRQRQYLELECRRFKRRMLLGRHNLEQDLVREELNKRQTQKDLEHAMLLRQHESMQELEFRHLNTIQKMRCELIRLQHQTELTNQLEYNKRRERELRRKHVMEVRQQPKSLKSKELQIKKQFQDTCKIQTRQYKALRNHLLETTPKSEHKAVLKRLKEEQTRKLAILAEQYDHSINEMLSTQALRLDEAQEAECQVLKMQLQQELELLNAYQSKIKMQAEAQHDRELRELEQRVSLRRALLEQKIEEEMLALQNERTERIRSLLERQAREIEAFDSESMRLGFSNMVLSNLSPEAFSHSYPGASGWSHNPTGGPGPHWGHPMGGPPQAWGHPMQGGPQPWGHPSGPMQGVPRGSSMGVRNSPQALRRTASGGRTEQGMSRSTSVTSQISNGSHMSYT
Description: Selectivity interaction (KinomeScan (DiscoverX)) EUB0001079a TAOK1. The note with it: at 1 µM.

For assay [4], the target named is Serine/threonine-protein kinase WNK4 (Homo sapiens) (UniProt Q96J92). The assay is described as follows: Selectivity interaction (ActivX KiNativ screen (ex vivo kinase selectivity in human PBMCs)) EUB0001619a WNK4. In kind it is cell-based. Conditions: PBMC, at 1 µM.
For assay [5], the target named is Serine/threonine-protein kinase WNK1 (Homo sapiens) (UniProt Q9H4A3). The assay is described as follows: Selectivity interaction (ActivX KiNativ screen (kinase selectivity in THP-1 cell lysates)) EUB0000639a WNK1. In kind it is subcellular. The note with it: lysate.
Assay [6] has as its target Serine/threonine-protein kinase 32A (Homo sapiens) (UniProt Q8WU08). The assay is described as follows: Selectivity interaction (KinomeScan (DiscoverX)) EUB0000092b STK32A. The note with it: at 10 µM.
Assay [7] addresses LIM domain kinase 2 (Homo sapiens) (UniProt P53671). Description: Selectivity interaction (KinomeScan (DiscoverX)) EUB0000618a LIMK2. Conditions: at 10 µM.
The target in assay [8] is Bone morphogenetic protein receptor type-1A (Homo sapiens, UniProt P36894). The assay is described as follows: Selectivity interaction (KinomeScan (DiscoverX)) EUB0000595a BMPR1A. The note with it: at 10 µM.

Serine/threonine-protein kinase WNK1 (Homo sapiens), sequence (Q9H4A3 whole entry, looked up): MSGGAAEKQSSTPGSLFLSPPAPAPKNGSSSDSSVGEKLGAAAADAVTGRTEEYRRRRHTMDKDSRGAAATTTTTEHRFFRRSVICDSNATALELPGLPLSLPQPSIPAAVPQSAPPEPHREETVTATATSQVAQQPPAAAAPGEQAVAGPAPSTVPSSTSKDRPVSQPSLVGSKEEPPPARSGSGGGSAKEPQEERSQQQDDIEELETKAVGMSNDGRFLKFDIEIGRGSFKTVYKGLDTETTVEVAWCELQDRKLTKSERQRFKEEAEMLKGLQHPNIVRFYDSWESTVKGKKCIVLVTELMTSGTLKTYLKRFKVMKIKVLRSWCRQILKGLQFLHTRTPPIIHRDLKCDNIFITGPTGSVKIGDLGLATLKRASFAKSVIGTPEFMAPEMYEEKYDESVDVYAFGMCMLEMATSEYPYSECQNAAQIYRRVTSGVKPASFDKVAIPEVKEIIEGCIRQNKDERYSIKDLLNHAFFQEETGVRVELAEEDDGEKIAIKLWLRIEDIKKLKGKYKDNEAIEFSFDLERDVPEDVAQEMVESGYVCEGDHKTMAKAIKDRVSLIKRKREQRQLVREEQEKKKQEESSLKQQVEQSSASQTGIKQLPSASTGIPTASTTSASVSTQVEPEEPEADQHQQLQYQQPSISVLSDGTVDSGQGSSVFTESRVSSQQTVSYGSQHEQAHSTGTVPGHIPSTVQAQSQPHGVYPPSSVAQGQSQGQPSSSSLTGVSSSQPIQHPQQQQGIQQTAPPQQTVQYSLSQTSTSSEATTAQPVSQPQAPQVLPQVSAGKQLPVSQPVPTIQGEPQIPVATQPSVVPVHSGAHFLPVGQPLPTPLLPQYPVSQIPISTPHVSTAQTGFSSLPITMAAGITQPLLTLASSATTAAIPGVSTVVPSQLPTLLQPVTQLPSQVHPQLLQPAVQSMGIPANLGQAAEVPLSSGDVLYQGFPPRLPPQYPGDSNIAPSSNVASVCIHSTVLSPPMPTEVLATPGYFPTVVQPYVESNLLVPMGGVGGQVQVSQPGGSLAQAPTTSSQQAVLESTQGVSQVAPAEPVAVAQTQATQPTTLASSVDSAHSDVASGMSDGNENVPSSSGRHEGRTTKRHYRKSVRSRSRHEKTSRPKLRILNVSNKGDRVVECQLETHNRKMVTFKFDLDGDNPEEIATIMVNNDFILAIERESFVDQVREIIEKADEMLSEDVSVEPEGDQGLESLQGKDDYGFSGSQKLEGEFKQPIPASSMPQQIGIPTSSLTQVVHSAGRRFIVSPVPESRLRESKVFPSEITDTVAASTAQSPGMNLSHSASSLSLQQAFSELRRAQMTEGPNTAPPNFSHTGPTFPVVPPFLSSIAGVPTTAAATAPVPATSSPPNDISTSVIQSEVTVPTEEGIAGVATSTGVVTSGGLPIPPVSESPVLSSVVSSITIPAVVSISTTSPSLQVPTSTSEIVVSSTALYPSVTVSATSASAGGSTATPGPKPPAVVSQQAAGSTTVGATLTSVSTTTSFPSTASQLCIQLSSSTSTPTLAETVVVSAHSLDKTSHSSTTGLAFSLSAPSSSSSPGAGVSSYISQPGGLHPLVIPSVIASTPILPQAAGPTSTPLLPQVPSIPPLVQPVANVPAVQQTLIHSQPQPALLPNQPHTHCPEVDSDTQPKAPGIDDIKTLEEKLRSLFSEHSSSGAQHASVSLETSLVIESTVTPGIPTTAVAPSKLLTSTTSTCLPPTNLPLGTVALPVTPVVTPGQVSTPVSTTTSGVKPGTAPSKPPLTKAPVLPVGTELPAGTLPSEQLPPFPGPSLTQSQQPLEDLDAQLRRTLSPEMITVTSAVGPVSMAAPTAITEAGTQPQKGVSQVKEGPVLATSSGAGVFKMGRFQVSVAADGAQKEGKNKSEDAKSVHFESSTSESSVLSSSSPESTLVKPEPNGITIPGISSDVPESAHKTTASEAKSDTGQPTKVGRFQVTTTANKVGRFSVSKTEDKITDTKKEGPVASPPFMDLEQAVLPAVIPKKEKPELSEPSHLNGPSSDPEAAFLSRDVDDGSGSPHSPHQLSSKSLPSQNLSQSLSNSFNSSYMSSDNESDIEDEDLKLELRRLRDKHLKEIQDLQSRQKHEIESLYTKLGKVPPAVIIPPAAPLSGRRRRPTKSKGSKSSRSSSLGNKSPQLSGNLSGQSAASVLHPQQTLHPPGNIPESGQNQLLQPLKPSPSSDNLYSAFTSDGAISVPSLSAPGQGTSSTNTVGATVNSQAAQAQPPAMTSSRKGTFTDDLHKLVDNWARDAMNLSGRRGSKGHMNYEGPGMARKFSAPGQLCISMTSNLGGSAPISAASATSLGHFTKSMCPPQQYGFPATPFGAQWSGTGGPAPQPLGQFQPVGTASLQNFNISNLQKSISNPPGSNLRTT
LIM domain kinase 2 (Homo sapiens), sequence (P53671 whole entry, looked up, the tested form may be a part): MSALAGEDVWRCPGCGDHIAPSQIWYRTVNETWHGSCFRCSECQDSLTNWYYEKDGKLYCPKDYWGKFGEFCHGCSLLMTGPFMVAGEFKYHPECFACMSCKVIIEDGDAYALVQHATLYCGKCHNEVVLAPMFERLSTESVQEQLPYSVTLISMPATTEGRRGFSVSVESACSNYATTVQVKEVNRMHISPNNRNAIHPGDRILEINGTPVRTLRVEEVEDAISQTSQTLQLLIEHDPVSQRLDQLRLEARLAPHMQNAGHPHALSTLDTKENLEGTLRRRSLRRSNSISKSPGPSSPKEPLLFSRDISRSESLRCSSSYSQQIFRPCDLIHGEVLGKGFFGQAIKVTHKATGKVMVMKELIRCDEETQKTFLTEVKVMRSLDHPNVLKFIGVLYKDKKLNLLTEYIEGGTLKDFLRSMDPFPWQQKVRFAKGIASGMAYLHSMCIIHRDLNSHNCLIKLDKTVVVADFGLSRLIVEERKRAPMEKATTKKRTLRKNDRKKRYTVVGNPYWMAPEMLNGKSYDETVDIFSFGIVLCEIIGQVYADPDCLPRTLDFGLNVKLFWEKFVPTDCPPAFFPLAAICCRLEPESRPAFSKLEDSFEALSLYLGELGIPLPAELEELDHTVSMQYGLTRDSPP
Serine/threonine-protein kinase MRCK alpha (Homo sapiens), sequence (Q5VT25 whole entry): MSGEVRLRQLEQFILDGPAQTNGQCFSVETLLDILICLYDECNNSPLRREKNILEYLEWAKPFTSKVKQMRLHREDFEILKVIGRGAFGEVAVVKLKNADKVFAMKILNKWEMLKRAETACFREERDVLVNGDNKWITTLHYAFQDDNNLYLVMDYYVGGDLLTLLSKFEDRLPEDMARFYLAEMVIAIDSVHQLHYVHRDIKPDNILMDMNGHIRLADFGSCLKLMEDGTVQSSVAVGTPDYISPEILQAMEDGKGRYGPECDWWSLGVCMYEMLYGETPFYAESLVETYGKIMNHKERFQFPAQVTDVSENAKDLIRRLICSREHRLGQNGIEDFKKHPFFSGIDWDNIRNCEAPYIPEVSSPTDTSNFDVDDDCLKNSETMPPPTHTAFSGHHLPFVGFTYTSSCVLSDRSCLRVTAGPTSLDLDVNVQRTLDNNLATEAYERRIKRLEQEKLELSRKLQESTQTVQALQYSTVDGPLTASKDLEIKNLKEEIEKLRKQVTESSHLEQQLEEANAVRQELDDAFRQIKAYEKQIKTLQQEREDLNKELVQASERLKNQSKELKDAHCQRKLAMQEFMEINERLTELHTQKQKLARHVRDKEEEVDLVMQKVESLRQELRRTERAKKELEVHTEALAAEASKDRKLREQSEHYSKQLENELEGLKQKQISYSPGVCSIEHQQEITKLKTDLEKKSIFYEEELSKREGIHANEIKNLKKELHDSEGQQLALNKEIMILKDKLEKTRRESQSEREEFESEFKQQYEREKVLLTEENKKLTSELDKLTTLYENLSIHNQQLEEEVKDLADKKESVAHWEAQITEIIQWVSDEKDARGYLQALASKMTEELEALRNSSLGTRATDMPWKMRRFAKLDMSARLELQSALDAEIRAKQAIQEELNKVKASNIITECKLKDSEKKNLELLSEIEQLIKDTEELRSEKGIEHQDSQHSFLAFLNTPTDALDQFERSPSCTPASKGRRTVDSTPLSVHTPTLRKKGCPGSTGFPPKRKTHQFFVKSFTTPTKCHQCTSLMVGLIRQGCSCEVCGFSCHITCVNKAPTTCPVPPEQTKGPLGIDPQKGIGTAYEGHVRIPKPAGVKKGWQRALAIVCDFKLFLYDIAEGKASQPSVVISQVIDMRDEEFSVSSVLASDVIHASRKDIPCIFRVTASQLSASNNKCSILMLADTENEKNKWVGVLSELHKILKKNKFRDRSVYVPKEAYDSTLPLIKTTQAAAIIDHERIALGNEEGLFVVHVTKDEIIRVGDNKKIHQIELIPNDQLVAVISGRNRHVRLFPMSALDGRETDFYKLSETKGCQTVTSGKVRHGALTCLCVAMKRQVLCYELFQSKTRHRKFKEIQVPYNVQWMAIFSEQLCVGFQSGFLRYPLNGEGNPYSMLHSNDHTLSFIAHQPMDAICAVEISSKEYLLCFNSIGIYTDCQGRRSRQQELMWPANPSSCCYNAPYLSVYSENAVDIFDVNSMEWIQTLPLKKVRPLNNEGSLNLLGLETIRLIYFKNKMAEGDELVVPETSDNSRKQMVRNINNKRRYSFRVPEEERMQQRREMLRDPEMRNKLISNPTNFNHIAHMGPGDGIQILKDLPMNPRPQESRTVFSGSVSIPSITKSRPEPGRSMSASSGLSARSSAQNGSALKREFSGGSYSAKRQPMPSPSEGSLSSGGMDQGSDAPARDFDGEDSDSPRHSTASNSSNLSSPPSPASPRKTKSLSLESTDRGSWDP
Serine/threonine-protein kinase 32A (Homo sapiens), sequence (Q8WU08 whole entry, the tested form may be a part): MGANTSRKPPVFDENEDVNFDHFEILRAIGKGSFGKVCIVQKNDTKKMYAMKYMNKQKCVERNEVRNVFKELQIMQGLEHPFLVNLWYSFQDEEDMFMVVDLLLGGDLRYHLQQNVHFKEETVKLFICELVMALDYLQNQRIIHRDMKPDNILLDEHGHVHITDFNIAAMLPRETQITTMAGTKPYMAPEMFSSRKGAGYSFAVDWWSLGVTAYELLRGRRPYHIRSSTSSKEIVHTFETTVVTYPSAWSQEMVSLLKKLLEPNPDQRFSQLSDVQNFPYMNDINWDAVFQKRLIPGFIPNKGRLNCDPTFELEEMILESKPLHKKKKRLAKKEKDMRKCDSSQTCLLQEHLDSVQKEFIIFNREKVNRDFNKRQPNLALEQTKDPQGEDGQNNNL

The compound `CNC(=O)Nc1ccc(-c2nc(N3CC4CCC(C3)O4)c3cnn(C4CCC5(CC4)OCCO5)c3n2)cc1` registered a % of control in assay [1] of 78%.
`CN(C)CCOc1ccc(-c2nc(-c3ccncc3)c(-c3ccc4c(c3)CC/C4=N\O)[nH]2)cc1` showed a % of control in assay [2] of 78%.
With `Nc1cnc(N2CCc3cc(S(=O)(=O)Nc4c(F)cc(Cl)cc4F)cc(N4CCCC4=O)c32)nc1` [TP-020n], the % of control in assay [3] was found to be 80%.
Regarding `N#Cc1cccc(-c2c[nH]c3ncnc(N4CCOCC4)c23)c1`, the % of inhibition in assay [4] is -1%.
Turning to `CC[C@@H]1[C@H](F)C(=O)N[C@@H]1COc1nccc2cc(C(N)=O)c(OC)cc12` [ZIMLOVISERTIB], the % of inhibition in assay [5] (at 0.01 µM) is 10.1%; in assay [5] (at 0.04 µM), 23.3%; in assay [5] (at 0.2 µM), 9.7%; in assay [5] (at 1 µM) it was 3.1%; in assay [5] (at 5 µM), 3%.
On to `CCC(=O)N1CCN(c2ccc(-n3c(=O)ccc4cnc5ccc(-c6cnc7ccccc7c6)cc5c43)cc2C(F)(F)F)CC1`, for which the % of control in assay [6] was determined as 100%.
Turning to `O[C@H]1CC[C@H](Nc2ncc3nc(Nc4c(F)cc(F)cc4F)n([C@H]4CCOC4)c3n2)CC1`, in assay [7], the % of control is 29%.
The compound `COCC(=O)NC/C=C/c1ccc2ncnc(Nc3ccc(Oc4ccc(C)nc4)c(C)c3)c2c1` [CP-724714] gave a % of control in assay [8] of 100%.

The record behind these values is ChEMBL document CHEMBL5465560, “Selectivity Literature for EUbOPEN Chemogenomic Library” (2024).
